Literature values, collected in patent US20050266077A1, “Resorbable matrices with coatings for delivery of bioactive compounds” (Royal Biomedical, Inc., priority 2002, published 2005).

Details: exothermic reaction, matrix temperatures as high as 100° C

polymyxin
inactivation of antibiotic: inactivated
